Assay results taken from ChEMBL document CHEMBL1926576, “Fragment based lead discovery of small molecule inhibitors for the EPHA4 receptor tyrosine kinase” (Eur J Med Chem, 2012).

Key:
[1] = target: Tyrosine-protein kinase BTK (Homo sapiens) (UniProt Q06187); experiment: Inhibition of BTK assessed as residual activity at 10 uM using [33P-ATP] by radiometric filter binding assay
[2] = target: Misshapen-like kinase 1 (Homo sapiens) (UniProt Q8N4C8); experiment: Inhibition of MINK1 assessed as residual activity at 10 uM using [33P-ATP] by radiometric filter binding assay
[3] = target: Ribosomal protein S6 kinase alpha-1 (Homo sapiens) (UniProt Q15418); experiment: Inhibition of RSK1 assessed as residual activity at 10 uM using [33P-ATP] by radiometric filter binding assay
[4] = target: MAP kinase-activated protein kinase 3 (Homo sapiens) (UniProt Q16644); experiment: Inhibition of MAPKAP-K3 assessed as residual activity at 10 uM using [33P-ATP] by radiometric filter binding assay
[5] = target: Serine/threonine-protein kinase tousled-like 1 (Homo sapiens) (UniProt Q9UKI8); experiment: Inhibition of TLK1 assessed as residual activity at 10 uM using [33P-ATP] by radiometric filter binding assay
[6] = target: Dual specificity tyrosine-phosphorylation-regulated kinase 2 (Homo sapiens) (UniProt Q92630); experiment: Inhibition of DYRK2 assessed as residual activity at 10 uM using [33P-ATP] by radiometric filter binding assay
Dual specificity tyrosine-phosphorylation-regulated kinase 2 (Homo sapiens), sequence (Q92630 whole entry): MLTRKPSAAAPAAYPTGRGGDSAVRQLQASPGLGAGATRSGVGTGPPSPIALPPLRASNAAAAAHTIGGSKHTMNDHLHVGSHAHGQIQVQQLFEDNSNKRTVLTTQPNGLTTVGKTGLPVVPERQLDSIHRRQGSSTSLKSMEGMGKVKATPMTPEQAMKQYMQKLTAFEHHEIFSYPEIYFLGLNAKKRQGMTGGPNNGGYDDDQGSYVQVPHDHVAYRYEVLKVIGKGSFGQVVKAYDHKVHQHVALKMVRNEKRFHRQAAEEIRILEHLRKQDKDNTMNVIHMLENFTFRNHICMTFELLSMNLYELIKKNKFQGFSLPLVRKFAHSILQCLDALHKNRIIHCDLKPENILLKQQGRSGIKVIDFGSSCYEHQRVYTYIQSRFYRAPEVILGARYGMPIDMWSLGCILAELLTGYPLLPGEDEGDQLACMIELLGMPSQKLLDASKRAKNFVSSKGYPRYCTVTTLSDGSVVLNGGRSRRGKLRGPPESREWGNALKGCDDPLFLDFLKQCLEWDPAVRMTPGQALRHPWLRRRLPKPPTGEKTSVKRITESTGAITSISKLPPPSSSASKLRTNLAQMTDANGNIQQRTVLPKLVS

[7] = target: RAC-alpha serine/threonine-protein kinase (Homo sapiens) (UniProt P31749); experiment: Inhibition of PKBalpha assessed as residual activity at 10 uM using [33P-ATP] by radiometric filter binding assay
RAC-alpha serine/threonine-protein kinase (Homo sapiens), sequence (P31749 whole entry): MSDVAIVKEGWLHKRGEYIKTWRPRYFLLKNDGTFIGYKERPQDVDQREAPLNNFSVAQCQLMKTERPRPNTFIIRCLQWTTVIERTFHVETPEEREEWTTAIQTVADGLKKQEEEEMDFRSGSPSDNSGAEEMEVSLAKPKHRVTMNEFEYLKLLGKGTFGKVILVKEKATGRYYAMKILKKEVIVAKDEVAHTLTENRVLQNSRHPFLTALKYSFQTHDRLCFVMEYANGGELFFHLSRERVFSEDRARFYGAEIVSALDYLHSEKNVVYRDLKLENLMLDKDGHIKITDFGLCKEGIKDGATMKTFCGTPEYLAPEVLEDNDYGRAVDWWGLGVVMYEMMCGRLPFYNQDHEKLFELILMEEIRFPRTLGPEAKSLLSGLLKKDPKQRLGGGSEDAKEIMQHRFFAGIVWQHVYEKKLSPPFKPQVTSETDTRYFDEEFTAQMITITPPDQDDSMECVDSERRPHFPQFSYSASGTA

[8] = target: Maternal embryonic leucine zipper kinase (Homo sapiens) (UniProt Q14680); experiment: Inhibition of MELK assessed as residual activity at 10 uM using [33P-ATP] by radiometric filter binding assay
[9] = target: Serine/threonine-protein kinase MARK1 (Homo sapiens) (UniProt Q9P0L2); experiment: Inhibition of MARK1 assessed as residual activity at 10 uM using [33P-ATP] by radiometric filter binding assay
[10] = target: Eukaryotic elongation factor 2 kinase (Homo sapiens) (UniProt O00418); experiment: Inhibition of EF2K assessed as residual activity at 10 uM using [33P-ATP] by radiometric filter binding assay
[11] = target: Dual specificity protein kinase CLK2 (Homo sapiens) (UniProt P49760); experiment: Inhibition of CLK2 assessed as residual activity at 10 uM using [33P-ATP] by radiometric filter binding assay
Dual specificity protein kinase CLK2 (Homo sapiens), sequence (P49760 whole entry, looked up): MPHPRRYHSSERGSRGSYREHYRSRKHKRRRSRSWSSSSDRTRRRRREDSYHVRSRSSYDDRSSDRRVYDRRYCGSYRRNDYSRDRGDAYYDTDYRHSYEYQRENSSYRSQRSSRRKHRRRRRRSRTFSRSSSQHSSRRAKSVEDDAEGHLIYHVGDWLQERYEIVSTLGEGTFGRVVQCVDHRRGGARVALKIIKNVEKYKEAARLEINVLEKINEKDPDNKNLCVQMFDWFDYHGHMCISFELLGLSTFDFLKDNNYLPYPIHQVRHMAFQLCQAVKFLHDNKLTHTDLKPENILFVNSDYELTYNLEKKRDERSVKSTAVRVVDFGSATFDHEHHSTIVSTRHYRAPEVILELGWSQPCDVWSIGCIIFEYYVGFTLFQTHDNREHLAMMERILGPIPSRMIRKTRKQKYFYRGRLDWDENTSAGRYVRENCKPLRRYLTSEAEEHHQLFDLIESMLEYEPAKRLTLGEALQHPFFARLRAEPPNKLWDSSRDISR

[12] = target: MAP kinase-activated protein kinase 2 (Homo sapiens) (UniProt P49137); experiment: Inhibition of MAPKAP-K2 assessed as residual activity at 10 uM using [33P-ATP] by radiometric filter binding assay
[13] = target: Calcium/calmodulin-dependent protein kinase kinase 2 (Homo sapiens) (UniProt Q96RR4); experiment: Inhibition of CAMKKbeta assessed as residual activity at 10 uM using [33P-ATP] by radiometric filter binding assay
Calcium/calmodulin-dependent protein kinase kinase 2 (Homo sapiens), sequence (Q96RR4 2-588 limits assumed): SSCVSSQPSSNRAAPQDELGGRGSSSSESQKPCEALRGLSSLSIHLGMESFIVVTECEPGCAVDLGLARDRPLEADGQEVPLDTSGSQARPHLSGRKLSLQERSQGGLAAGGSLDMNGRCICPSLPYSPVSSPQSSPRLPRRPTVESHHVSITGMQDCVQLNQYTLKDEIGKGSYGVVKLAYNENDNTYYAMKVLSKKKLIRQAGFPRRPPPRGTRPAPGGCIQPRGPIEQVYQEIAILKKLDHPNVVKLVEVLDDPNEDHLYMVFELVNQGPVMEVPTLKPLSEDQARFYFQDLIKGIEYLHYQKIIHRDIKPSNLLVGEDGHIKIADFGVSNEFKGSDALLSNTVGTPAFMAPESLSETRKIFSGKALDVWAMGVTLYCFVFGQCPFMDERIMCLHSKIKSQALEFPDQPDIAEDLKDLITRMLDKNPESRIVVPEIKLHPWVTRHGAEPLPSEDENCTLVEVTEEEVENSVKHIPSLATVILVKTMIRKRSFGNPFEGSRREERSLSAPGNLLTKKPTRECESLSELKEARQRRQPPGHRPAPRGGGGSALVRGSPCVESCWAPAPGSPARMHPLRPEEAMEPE

[14] = target: MAP/microtubule affinity-regulating kinase 4 (Homo sapiens) (UniProt Q96L34); experiment: Inhibition of MARK4 assessed as residual activity at 10 uM using [33P-ATP] by radiometric filter binding assay
[15] = target: Dual specificity mitogen-activated protein kinase kinase 6 (Homo sapiens) (UniProt P52564); experiment: Inhibition of MKK6 assessed as residual activity at 10 uM using [33P-ATP] by radiometric filter binding assay
[16] = target: Mitogen-activated protein kinase kinase kinase 9 (Homo sapiens) (UniProt P80192); experiment: Inhibition of MLK1 assessed as residual activity at 10 uM using [33P-ATP] by radiometric filter binding assay
Mitogen-activated protein kinase kinase kinase 9 (Homo sapiens), sequence (P80192 whole entry, looked up): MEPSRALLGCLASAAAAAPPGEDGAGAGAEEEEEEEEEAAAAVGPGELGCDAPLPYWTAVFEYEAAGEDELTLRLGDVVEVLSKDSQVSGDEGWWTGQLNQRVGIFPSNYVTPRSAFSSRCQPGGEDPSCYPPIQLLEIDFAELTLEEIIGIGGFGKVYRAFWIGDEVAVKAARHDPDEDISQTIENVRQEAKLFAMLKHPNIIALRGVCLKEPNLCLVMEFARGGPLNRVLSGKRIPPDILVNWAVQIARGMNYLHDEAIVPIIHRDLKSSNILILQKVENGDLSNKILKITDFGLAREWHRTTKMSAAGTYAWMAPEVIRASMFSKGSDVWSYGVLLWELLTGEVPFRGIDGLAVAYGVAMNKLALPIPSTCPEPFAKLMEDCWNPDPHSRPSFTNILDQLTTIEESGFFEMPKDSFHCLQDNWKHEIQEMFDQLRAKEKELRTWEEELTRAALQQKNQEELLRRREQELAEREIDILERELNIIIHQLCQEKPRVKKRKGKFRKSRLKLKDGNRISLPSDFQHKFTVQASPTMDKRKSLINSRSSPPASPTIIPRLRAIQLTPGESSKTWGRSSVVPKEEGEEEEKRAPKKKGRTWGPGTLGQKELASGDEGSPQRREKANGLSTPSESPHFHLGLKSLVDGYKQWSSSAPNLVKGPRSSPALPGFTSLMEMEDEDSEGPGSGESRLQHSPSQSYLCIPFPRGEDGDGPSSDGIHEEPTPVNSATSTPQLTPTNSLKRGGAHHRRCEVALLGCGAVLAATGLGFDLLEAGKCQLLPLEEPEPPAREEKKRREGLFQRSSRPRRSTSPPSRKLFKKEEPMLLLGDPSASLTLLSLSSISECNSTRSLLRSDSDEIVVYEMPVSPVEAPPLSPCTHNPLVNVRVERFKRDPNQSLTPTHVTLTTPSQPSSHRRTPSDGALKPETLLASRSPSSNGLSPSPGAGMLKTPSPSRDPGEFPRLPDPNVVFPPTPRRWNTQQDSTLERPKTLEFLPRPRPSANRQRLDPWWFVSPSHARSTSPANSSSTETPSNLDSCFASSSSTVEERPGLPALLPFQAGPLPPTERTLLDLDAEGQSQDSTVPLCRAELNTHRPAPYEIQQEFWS

[17] = target: Mitogen-activated protein kinase 9 (Homo sapiens) (UniProt P45984); experiment: Inhibition of JNK2 assessed as residual activity at 10 uM using [33P-ATP] by radiometric filter binding assay
Mitogen-activated protein kinase 9 (Homo sapiens), sequence (P45984 whole entry, looked up): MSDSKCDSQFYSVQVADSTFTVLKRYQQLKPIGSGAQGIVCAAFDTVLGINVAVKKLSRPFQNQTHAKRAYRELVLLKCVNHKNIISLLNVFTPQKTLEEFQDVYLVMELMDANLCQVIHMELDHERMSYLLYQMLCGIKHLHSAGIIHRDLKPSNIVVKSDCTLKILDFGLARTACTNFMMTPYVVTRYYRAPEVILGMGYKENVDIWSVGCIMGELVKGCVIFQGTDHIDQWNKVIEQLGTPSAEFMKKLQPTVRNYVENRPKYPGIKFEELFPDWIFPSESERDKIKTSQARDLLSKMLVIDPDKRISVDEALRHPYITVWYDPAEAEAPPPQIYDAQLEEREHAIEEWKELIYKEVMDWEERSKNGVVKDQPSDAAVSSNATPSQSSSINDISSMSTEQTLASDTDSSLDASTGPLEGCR

[18] = target: Mitogen-activated protein kinase kinase kinase 7 (Homo sapiens) (UniProt O43318); experiment: Inhibition of TAK1 assessed as residual activity at 10 uM using [33P-ATP] by radiometric filter binding assay
[19] = target: Tyrosine-protein kinase CSK (Homo sapiens) (UniProt P41240); experiment: Inhibition of CSK assessed as residual activity at 10 uM using [33P-ATP] by radiometric filter binding assay
[20] = target: RAC-beta serine/threonine-protein kinase (Homo sapiens) (UniProt P31751); experiment: Inhibition of PKBbeta assessed as residual activity at 10 uM using [33P-ATP] by radiometric filter binding assay
[21] = target: MAP kinase-activated protein kinase 5 (Homo sapiens) (UniProt Q8IW41); experiment: Inhibition of PRAK assessed as residual activity at 10 uM using [33P-ATP] by radiometric filter binding assay
[22] = target: Inhibitor of nuclear factor kappa-B kinase subunit beta (Homo sapiens) (UniProt O14920); experiment: Inhibition of IKK-beta assessed as residual activity at 10 uM using [33P-ATP] by radiometric filter binding assay
[23] = target: Serine/threonine-protein kinase BRSK1 (Homo sapiens) (UniProt Q8TDC3); experiment: Inhibition of BRSK1 assessed as residual activity at 10 uM using [33P-ATP] by radiometric filter binding assay
Serine/threonine-protein kinase BRSK1 (Homo sapiens), sequence (Q8TDC3 whole entry): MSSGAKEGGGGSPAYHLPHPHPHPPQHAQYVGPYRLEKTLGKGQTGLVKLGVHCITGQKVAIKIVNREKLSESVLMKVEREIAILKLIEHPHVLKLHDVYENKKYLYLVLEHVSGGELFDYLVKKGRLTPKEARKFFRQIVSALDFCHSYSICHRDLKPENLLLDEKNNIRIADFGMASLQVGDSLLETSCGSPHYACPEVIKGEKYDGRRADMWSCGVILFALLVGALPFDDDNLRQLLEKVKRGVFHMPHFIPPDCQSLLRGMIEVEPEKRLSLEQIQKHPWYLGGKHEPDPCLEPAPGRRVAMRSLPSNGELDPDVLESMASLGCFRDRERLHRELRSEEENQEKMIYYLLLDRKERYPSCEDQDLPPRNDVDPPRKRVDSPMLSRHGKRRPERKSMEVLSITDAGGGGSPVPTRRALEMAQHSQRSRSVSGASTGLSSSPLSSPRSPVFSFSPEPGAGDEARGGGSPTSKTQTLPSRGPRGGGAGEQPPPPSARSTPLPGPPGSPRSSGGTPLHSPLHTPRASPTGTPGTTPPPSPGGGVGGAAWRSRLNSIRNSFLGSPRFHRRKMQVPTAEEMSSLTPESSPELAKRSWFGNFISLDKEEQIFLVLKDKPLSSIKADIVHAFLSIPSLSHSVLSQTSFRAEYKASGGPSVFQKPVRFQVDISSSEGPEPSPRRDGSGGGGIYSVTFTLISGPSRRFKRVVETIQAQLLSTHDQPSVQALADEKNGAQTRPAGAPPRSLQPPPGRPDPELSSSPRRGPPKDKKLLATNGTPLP

[24] = target: Serine/threonine-protein kinase STK11 (Homo sapiens) (UniProt Q15831); experiment: Inhibition of LKB1 assessed as residual activity at 10 uM using [33P-ATP] by radiometric filter binding assay
[25] = target: Serine/threonine-protein kinase 3 (Homo sapiens) (UniProt Q13188); experiment: Inhibition of MST2 assessed as residual activity at 10 uM using [33P-ATP] by radiometric filter binding assay
[26] = target: Serine/threonine-protein kinase PAK 4 (Homo sapiens) (UniProt O96013); experiment: Inhibition of PAK4 assessed as residual activity at 10 uM using [33P-ATP] by radiometric filter binding assay
[27] = target: Ribosomal protein S6 kinase beta-1 (Homo sapiens) (UniProt P23443); experiment: Inhibition of S6K1 assessed as residual activity at 10 uM using [33P-ATP] by radiometric filter binding assay
Ribosomal protein S6 kinase beta-1 (Homo sapiens), sequence (P23443 whole entry, looked up): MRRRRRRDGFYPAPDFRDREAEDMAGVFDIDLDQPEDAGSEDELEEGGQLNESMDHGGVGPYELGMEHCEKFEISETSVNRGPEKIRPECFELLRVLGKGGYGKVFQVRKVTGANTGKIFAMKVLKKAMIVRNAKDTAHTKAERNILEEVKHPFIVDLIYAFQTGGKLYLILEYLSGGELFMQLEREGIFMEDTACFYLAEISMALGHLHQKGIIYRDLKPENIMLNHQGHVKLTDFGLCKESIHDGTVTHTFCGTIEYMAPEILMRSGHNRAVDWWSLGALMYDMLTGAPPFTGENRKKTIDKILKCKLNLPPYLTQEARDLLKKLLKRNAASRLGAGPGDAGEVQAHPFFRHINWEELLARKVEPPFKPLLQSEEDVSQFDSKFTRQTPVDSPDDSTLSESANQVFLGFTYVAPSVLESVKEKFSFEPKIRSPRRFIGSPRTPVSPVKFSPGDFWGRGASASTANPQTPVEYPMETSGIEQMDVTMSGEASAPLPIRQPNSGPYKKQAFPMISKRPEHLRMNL

[28] = target: Tyrosine-protein kinase Lck (Homo sapiens) (UniProt P06239); experiment: Inhibition of Lck assessed as residual activity at 10 uM using [33P-ATP] by radiometric filter binding assay
[29] = Inhibition of PKA assessed as residual activity at 10 uM using [33P-ATP] by radiometric filter binding assay
[30] = target: Insulin receptor-related protein (Homo sapiens) (UniProt P14616); experiment: Inhibition of IRR assessed as residual activity at 10 uM using [33P-ATP] by radiometric filter binding assay
[31] = target: 3-phosphoinositide-dependent protein kinase 1 (Homo sapiens) (UniProt O15530); experiment: Inhibition of PDK1 assessed as residual activity at 10 uM using [33P-ATP] by radiometric filter binding assay
[32] = target: Serine/threonine-protein kinase BRSK2 (Homo sapiens) (UniProt Q8IWQ3); experiment: Inhibition of BRSK2 assessed as residual activity at 10 uM using [33P-ATP] by radiometric filter binding assay

With `Cc1ccc(F)cc1-c1nc2[nH]nc(N)c2c2c1CCCC2` the Activity [1] was 30%, the Activity [2] was 65% and the Activity [3] was 93%. It also gave an Activity [4] of 84%, an Activity [5] of 99% and an Activity [6] of 101%. The Activity [7] was 79%, the Activity [8] was 64% and the Activity [9] was 86%. For the same compound, the Activity [10] was 114%, the Activity [11] was 45% and the Activity [12] was 89%. The Activity [13] was 89%, the Activity [14] was 74% and the Activity [15] was 86%. The Activity [16] was 63%, the Activity [17] was 88% and the Activity [18] was 96%. The Activity [19] was 35%, the Activity [20] was 77% and the Activity [21] was 97%. The Activity [22] was 51%, the Activity [23] was 52% and the Activity [24] was 52%. It also gave an Activity [25] of 66%, an Activity [26] of 82% and an Activity [27] of 103%. It also gave an Activity [28] of 8%, an Activity [29] of 93% and an Activity [30] of 77%. For the same compound, the Activity [31] was 103% and the Activity [32] was 73%.
